Drawing on PubChem BioAssay (NCI), this text covers TGI and GI50 for 16 compounds.

Among the test systems are DMS 273 small cell lung; KM20L2 colon; LXFL 529 NSCLC; DMS 114 small cell lung; DLD-1 colon; SNB-78 CNS; HL-60(TB) leukemia; ACHN renal; MCF7 breast; DU-145 prostate; T-47D breast; MDA-MB-435; PC-3 prostate.
Holding throughout (assay): NCI tumour cell line growth inhibition, 48 h

Where “and” joins values, the source holds several entries; their conditions need not be identical. Equal entries are not always repeated.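 Exposure lasted 48 hours, with cells grown in 96-well plates and compounds tested at five concentrations. Abbreviation: GI50, concentration required for 50% inhibition of growth. TGI denotes the concentration required for complete inhibition of growth.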 Some results are limits rather than exact numbers.

In the case of `CCCCCCCCCCCCCC(=O)OCC1OC(n2cc(F)c(=O)[nH]c2=O)C(NC(=O)OCc2ccccc2)C(OC(=O)CCCCCCCCCCCCC)C1O` (stereo unspecified), the TGI in the experiment on DMS 273 small cell lung, with KM20L2 colon, in the experiment on LXFL 529 NSCLC, in the experiment with DMS 114 small cell lung, in the experiment with DLD-1 colon and in the experiment on SNB-78 CNS was above 100 µM throughout. Besides, the TGI with HL-60(TB) leukemia and in the experiment on ACHN renal was above 100 µM each time.

As to `CCCCCCCCOCC(O)COC(=O)CCCCCCC` (stereo unspecified), the TGI in the experiment with DMS 273 small cell lung is above 100 µM; with KM20L2 colon, above 100 µM; with LXFL 529 NSCLC, above 100 µM; in the experiment with DMS 114 small cell lung, above 100 µM; in the experiment with DLD-1 colon, above 100 µM; in the experiment with HL-60(TB) leukemia, 93.9 µM. The same compound yielded a TGI with ACHN renal above 100 µM.

For `N#Cc1c2c(c(N=P(c3ccccc3)(c3ccccc3)c3ccccc3)n3c1nc1ccccc13)CCCC2`, the TGI was 56.1 µM with DMS 273 small cell lung; above 100 µM in the experiment on KM20L2 colon; above 100 µM in the experiment with LXFL 529 NSCLC; 59.4 µM in the experiment with DMS 114 small cell lung; above 100 µM with DLD-1 colon; 97.3 µM in the experiment on SNB-78 CNS. Also, the figures for the TGI in the experiment on HL-60(TB) leukemia and in the experiment on ACHN renal were 24.8 µM and 67.5 µM, respectively.

In the case of `COc1ccc(C2CC(c3cc(C)ccc3O)=NC(N)=N2)cc1` (stereo unspecified), the TGI with DMS 273 small cell lung, with KM20L2 colon, in the experiment with LXFL 529 NSCLC, with DMS 114 small cell lung, in the experiment with DLD-1 colon and in the experiment with SNB-78 CNS was above 100 µM throughout. Also, the TGI in the experiment on HL-60(TB) leukemia and with ACHN renal was above 100 µM each time.

Regarding `CC1=CC(=C(c2ccc(N)cc2)c2ccc(N)cc2)C=CC1=N`, the GI50 in the experiment with MCF7 breast is 0.803 µM and 2.32 µM; in the experiment on DU-145 prostate, 2.07 µM and 3.92 µM; in the experiment with T-47D breast, 0.27 µM and 1.31 µM; with MDA-MB-435 it was 0.969 µM; in the experiment with PC-3 prostate, 0.553 µM and 2.58 µM; in the experiment on HL-60(TB) leukemia, 0.482 µM. Besides, in the experiment on ACHN renal, the GI50 is 3.9 µM and 5.01 µM. The TGI with MCF7 breast was 11.4 µM and > 66.8 µM and 21.1 µM; with KM20L2 colon it was 17.6 µM; in the experiment with LXFL 529 NSCLC it was 13.6 µM; with DMS 114 small cell lung it was 12.9 µM; with DU-145 prostate it was 15.2 µM and > 40.3 µM and 14.2 µM; in the experiment with T-47D breast, 2.73 µM and 11.8 µM and 8.81 µM. Moreover, the TGI with DLD-1 colon is above 100 µM; in the experiment with SNB-78 CNS, 9.89 µM; in the experiment with MDA-MB-435, 10.2 µM and > 44.8 µM and 15.6 µM; in the experiment on PC-3 prostate, 10.6 µM and 18.2 µM and 10.1 µM; in the experiment with HL-60(TB) leukemia, 3.51 µM and > 21.6 µM; with ACHN renal it was 18.1 µM and 44.9 µM and 24.3 µM.

`CC(C)(C)OC(=O)NCCc1cccc2c1oc1c(CCC(=O)O)cccc12`: the TGI in the experiment on DMS 273 small cell lung, with KM20L2 colon, in the experiment on LXFL 529 NSCLC, with DMS 114 small cell lung, in the experiment with DLD-1 colon and in the experiment on SNB-78 CNS was above 100 µM each time. Besides, the TGI with HL-60(TB) leukemia and in the experiment on ACHN renal was above 100 µM each time.

In the case of `CC(=O)OC1CCCn2c1nc1c2C(=O)C(C)=C(N2CC2)C1=O` (stereo unspecified), the TGI in the experiment with DMS 273 small cell lung was 0.552 µM; in the experiment with KM20L2 colon, 1.2 µM; in the experiment with LXFL 529 NSCLC, 1.66 µM; in the experiment on DMS 114 small cell lung, 2.38 µM; with DLD-1 colon it was 10.9 µM; in the experiment with SNB-78 CNS, 2.88 µM. Also, the values for the TGI in the experiment on HL-60(TB) leukemia and in the experiment with ACHN renal were 14.6 µM and 1.25 µM, respectively.

Regarding `CC(/C(=N\Nc1ccccc1)c1ccc(O)cc1)C1C(=O)Oc2ccccc21` (stereo unspecified), the TGI in the experiment with DMS 273 small cell lung, with KM20L2 colon, in the experiment with LXFL 529 NSCLC, in the experiment on DMS 114 small cell lung, with DLD-1 colon and in the experiment with HL-60(TB) leukemia was above 100 µM in each case. This compound showed a TGI in the experiment on ACHN renal above 100 µM.

On to `CC1SC2=NC3=C(c4ccccc4C3=O)C(c3ccc(Cl)cc3)N2C1=O` (stereo unspecified), for which the TGI with DMS 273 small cell lung, in the experiment with KM20L2 colon, with LXFL 529 NSCLC, in the experiment with DMS 114 small cell lung, in the experiment with DLD-1 colon and in the experiment with HL-60(TB) leukemia was above 100 µM in each case. Moreover, the TGI in the experiment on ACHN renal is above 100 µM.

For `COC(=O)C(C(=O)C(=O)Nc1nc(=S)[nH][nH]1)c1csc(-n2nc(-c3ccccc3)cc2-c2ccccc2)n1` (stereo unspecified), the TGI with DMS 273 small cell lung, with KM20L2 colon, with LXFL 529 NSCLC, in the experiment on DLD-1 colon, with SNB-78 CNS and with HL-60(TB) leukemia was above 100 µM each time. Besides, the TGI in the experiment with ACHN renal is above 100 µM.

For the compound `NS(=O)(=O)c1ccc(NC2=CC(=O)C(=O)c3ccccc32)cc1`, the TGI in the experiment on DMS 273 small cell lung, with KM20L2 colon, in the experiment on LXFL 529 NSCLC, in the experiment on DMS 114 small cell lung, in the experiment with DLD-1 colon and in the experiment with SNB-78 CNS was above 100 µM in each case. Further, the TGI in the experiment on HL-60(TB) leukemia and in the experiment with ACHN renal was above 100 µM in each case.

On to `CC(=O)Nc1cc(N(CCOS(C)(=O)=O)CCOS(C)(=O)=O)ccc1N=O`, for which the TGI with DMS 273 small cell lung, in the experiment on KM20L2 colon, with LXFL 529 NSCLC, in the experiment on DMS 114 small cell lung, in the experiment with DLD-1 colon and in the experiment on HL-60(TB) leukemia was above 100 µM each time. This compound also had a TGI with ACHN renal above 100 µM.

In the case of `CO[C@@H]1C=C[C@@]23c4cc5c(cc4C(=O)O[C@H]2CN(C)[C@H]3C1)OCO5`, the TGI in the experiment with DMS 273 small cell lung, in the experiment on KM20L2 colon, in the experiment with LXFL 529 NSCLC, with DMS 114 small cell lung, with DLD-1 colon and in the experiment on SNB-78 CNS was above 100 µM each time. The TGI in the experiment on HL-60(TB) leukemia and in the experiment on ACHN renal was above 100 µM in each case.

Take `COC(=O)C(CC(C)C)NC(=O)NC12CC3CC(CC(F)(C3)C1)C2` (stereo unspecified): the TGI in the experiment on KM20L2 colon, with LXFL 529 NSCLC, with DMS 114 small cell lung, in the experiment on DLD-1 colon, with SNB-78 CNS and with HL-60(TB) leukemia was above 100 µM each time. In the experiment on ACHN renal, this compound displayed a TGI above 100 µM.

For the compound `Cc1cc2c(cc1C)[n+](=O)c(C(=O)C/C(=N/OCCCc1ccccc1)C(=O)Nc1cc(Cl)ccc1Cl)c(C)n2[O-]`, the TGI in the experiment with DMS 273 small cell lung, with KM20L2 colon, in the experiment with LXFL 529 NSCLC, with DLD-1 colon, in the experiment on SNB-78 CNS and with HL-60(TB) leukemia was above 100 µM throughout. The compound also yielded a TGI in the experiment on ACHN renal above 100 µM.

With `CC[P+](C)(C)c1ccccc1`, the TGI with DMS 273 small cell lung, in the experiment on KM20L2 colon, with LXFL 529 NSCLC, in the experiment on DMS 114 small cell lung, with DLD-1 colon and in the experiment on SNB-78 CNS was above 100 µM in each case. Besides, the TGI in the experiment with ACHN renal was above 100 µM.
